Reference: patent publication US11529323B2 (priority 2017, dated 2022)

Experiments:
phospho-STAT3 (pSTAT3) = assay: Phospho-STAT3/STAT3 ELISA in C-26 tumors, Study 2; type: in vivo, mouse; settings: AR-42 10 mg/kg
Text: FIG. 4A is a table showing multiplex analysis of diverse serum cytokines in terminal samples from Study 2. Presented cytokines are limited to those showing significant differences from tumor-bearing vehicle-treated controls. G-CSF: granulocyte colony-stimulating factor, GM-CSF: granulocyte macrophage colony-stimulating factor, IL-6: interleukin-6, IL-17: interleukin-17, IP-10: interferon gamma-induced protein 10, KC: chemokine (C-X-C motif) ligand 1, LIF: leukemia inhibitory factor, M-CSF: macrophage colony-stimulating factor. FIG. 4B is a bar graph showin ELISA analysis of serum IL-6 levels in terminal samples from Study 2. ND, not detected. FIG. 4C is a plot showing individual animal serum IL-6 values as determined in A plotted against tumor-corrected terminal bodyweights from Study 2 (Pearson's Correlation). […] FIG. 4E is a plot showing spleen weights normalized to tumor-corrected terminal body weights of mice from Study 2. FIG. 4F is a bar graph showing ELISA analysis of STAT3 within C-26 tumors from Study 2. […]
Phospho-STAT3/STAT3 Analysis: Expression of phospho-STAT3 and total STAT3 in C-26 tumor tissues was measured using commercial sandwich ELISA kits according to the manufacturer's instructions (PathScan® Phospho-Stat3, #7300, and Total Stat3, #7305, Cell Signaling Technology, Danvers, Mass.).

[1] = oral gavage every other day; cited from earlier work
C-26 tumor-bearing mice = settings: AR-42 50 mg/kg, Tseng et al. 2015, cited from earlier work
[2] = system: C-26 colon adenocarcinoma cachexia model; assay: AR-42 dose-response study in the C-26 cachexia model; type: in vivo, mouse
Description: These studies were performed as previously described (Tseng Y C, et al. J Natl Cancer Inst. 2015 107(12):djv274) with modifications. Tumors were established in the right flank by subcutaneous injection of C-26 cells (0.5×10^6 cells in 0.1 mL). […] TFM-4AS-1 (a potent experimental SARM), dihydrotestosterone (DHT) and vehicles were administered by subcutaneous injection.
Male CD2F1 mice were stratified by body weight and then randomly assigned into 5 groups of 6 animals each. C-26 tumors were established in four of the groups, while those in the fifth group, serving as tumor-free controls, were injected with sterile saline. Six days later, animals with palpable tumors were treated with AR-42 once daily at 10 (n=5) and 20 mg/kg (n=6), and every other day at 50 mg/kg (n=5), or vehicle control (n=4) for 13 days. Upon sacrifice on study day 18, when the majority of tumor-bearing control mice met euthanasia criteria, the left gastrocnemius muscle was excised and flash frozen in liquid nitrogen and stored at −80° C. for subsequent analyses. Carcass weights were corrected for tumor weight by assuming a tumor density equivalent to water (1 g/cm^3).

[3] = system: gastrocnemius transcriptome; assay: RNA-seq of gastrocnemius muscles, Study 1; type: in vivo, mouse; settings: for expression of Wnt5a, Fzd1, β-catenin (CTNNB1) and GSK3B: gastrocnemius of tumor-bearing mice, AR-42: with the exception of β-catenin
Description: For each sample, 600 ng total RNA (Bioanalyzer RIN values>7) was used to generate polyA enriched RNA-seq libraries with the NEBNext Ultra II Directional RNA Library Prep Kit (New England Biolabs, Inc., catolog number E7760) and sequenced as PE-150 reads on HiSeq 4000 (Illumina Inc, San Diego, Calif.). Raw fastq files were adaptor trimmed using Trimmomatic (Bolger, A. M., et al. Bioinformatics 2014 30(15):2114-2120), aligned to the mm10 genome with Subread (Liao Y, et al. Nucleic Acids Res. 2013 41(10):e108), and marked for duplicate reads with Picard v2.3.0. Samtools (Li H., et al. Bioinformatics 2014 25:2078-9) was used to calculate post-alignment quality control metrics (Table 3). A gene-based counts matrix was generated with the summarizeOverlaps function of GenomicAlignments (Lawrence M, et al. PLoS Comput Biol 9(8):e1003118) and analyzed with DESeq2 (Love, M. I., et al. Genome biology 15(12):550) for genes differentially expressed among groups. GSEAPreranked analyses (Subramanian A, et al. Proc Natl Acad Sci USA. 2005 102:15545-15550) were performed using the signed log 10 p-values for each gene to test for significant enrichment of gene sets in the ‘TF Targets’ file downloaded from ge-lab.org/#/data. Any duplication in signed log 10 p-values was removed prior to running the GSEAPreranked analyses by adding a small value sampled at random from a normal distribution with mean zero and standard deviation 0.00001 to each duplicated value. GSEAPreranked analyses were performed in classic mode on gene sets with a minimum and maximum of 5 and 5000 genes in the gene set, respectively, and were followed by leading-edge analyses for selected comparison and gene set combinations. Heatmaps for RNA-seq data were generated with pheatmap using z-scores calculated from log count-per-million values obtained with the ‘cpm’ function in EdgeR (Robinson, M. D., et al. Bioinformatics 2010 26:139-140).

| SMILES | pSTAT3 signaling within the C-26 tumors (phospho-STAT3 (pSTAT3)) | maximally tolerated dose in mice [1] | effect on adipose (C-26 tumor-bearing mice) | serum IL-6 levels and gastrocnemius IL-6 receptor mRNA abundance (C-26 tumor-bearing mice; tumor-bearing mice) | lowest efficacious dose ([2]; daily oral, C-26 model) | tumor-corrected body weight ([2]; thirteen daily oral doses of 20 or 10 mg/kg, similar to six 50 mg/kg doses q2d, C-26 tumor-bearing mice, Day 18) | IL-6 receptor (IL-6RA) mRNA expression in gastrocnemius ([3]; cachectic mice) | expression of Wnt5a, Fzd1, β-catenin (CTNNB1) and GSK3B [3] |
| --- | --- | --- | --- | --- | --- | --- | --- | --- |
| CC(C)[C@H](C(=O)Nc1ccc(C(=O)NO)cc1)c1ccccc1 [AR-42, (S)—N-hydroxy-4-(3-methyl-2-phenylbutanamido)benzamide] | did not significantly suppress pSTAT3 signaling within the C-26 tumors | 50 mg/kg | adipose-sparing effect | reduced serum IL-6 levels, as well as gastrocnemius IL-6 receptor mRNA abundance | 10 mg/kg | reversed C-26 tumor-mediated reductions in tumor-corrected body weight | restore non-cachectic control levels | effectively reversed tumor-induced regulation |
| C[C@](O)(COc1ccc(C#N)cc1)C(=O)Nc1ccc(C#N)c(C(F)(F)F)c1 [GTx-024, (2S)-3-(4-cyanophenoxy)-N-(4-cyano-3-(trifluoromethyl)phenyl)-2-hydroxy-2-methylpropanamide] |  |  |  |  |  |  |  | failed to restore expression to tumor-free control levels |
